Measurements taken from patent US12215107B1, “Pyrazino[1′,2′:1,5]pyrazolo[4,3-c] [2,6] naphthyridine compounds as CK2 inhibitors” (KING FAISAL UNIVERSITY, priority 2024, dated 2025).

Key:
PC3 (prostate) = assay: MTT in vitro cytotoxic activity assay, PC3; format: cell-based; conditions: Homo sapiens, Prostate cell, cells exposed for 96 hours, read-out: Cytotoxicity activity IC50 (50% inhibition of cell proliferation)
Description: (§1) Compounds 1-16 were screened for their in vitro cytotoxic activity utilizing a 3-(4,5-dimethyl-thiazol-2-yl)-2,5-diphenyltetrazolium bromide (MTT) assay against selected cancer human cell lines consisting of PC3 (prostate), HCT116 (colon), A375 (melanoma), H1299 (lung), MIAPaCa-2 (pancreas), HL60 (leukemia), MCF7 (breast), MDA-MB-231 (breast) (T. Mosmann, J. Immunol. Meth., 1983, 65, 55-63). The cells were cultured at 37° C. in RMPI1640 medium supplemented with 10% fetal bovine serum, 50 IU/mL penicillin, and 50 μg/mL streptomycin in a 5% CO2 incubator. All cells were sub-cultured 3 times/week by trypsinisation. Viable cells were seeded and allowed to adhere for 12 hours before a test drug was added in 96-well plates at an initial density of 1.0×10^5 cells/mL. Tumor cell lines were separately exposed to various concentrations of the tested compounds followed by incubation at a temperature of 37° C. during 96 hours inside a medium of fresh RMPI 1640. Cells were subsequently incubated at 37° C. using MTT at 0.5 mg/mL during 4 hours. After removal of supernatant, formazan crystals were dissolved in isopropanol and the optical density was measured at 570 nm. CX-4945 was used as a positive control.

HCT116 (colon) = assay: MTT in vitro cytotoxic activity assay, HCT116; format: cell-based; conditions: Homo sapiens, HCT-116, cells exposed for 96 hours, read-out: Cytotoxicity activity IC50 (50% inhibition of cell proliferation)
Description: as §1

A375 (melanoma) = assay: MTT in vitro cytotoxic activity assay, A375; format: cell-based; conditions: Homo sapiens, A-375, cells exposed for 96 hours, read-out: Cytotoxicity activity IC50 (50% inhibition of cell proliferation)
Description: as §1

H1299 (lung) = assay: MTT in vitro cytotoxic activity assay, H1299; format: cell-based; conditions: Homo sapiens, NCI-H1299, cells exposed for 96 hours, read-out: Cytotoxicity activity IC50 (50% inhibition of cell proliferation)
Description: as §1

MIAPaCa-2 (pancreas) = assay: MTT in vitro cytotoxic activity assay, MIAPaCa-2; format: cell-based; conditions: Homo sapiens, MIA PaCa-2, cells exposed for 96 hours, read-out: Cytotoxicity activity IC50 (50% inhibition of cell proliferation)
Description: as §1

HL60 (leukemia) = assay: MTT in vitro cytotoxic activity assay, HL60; format: cell-based; conditions: Homo sapiens, HL-60, cells exposed for 96 hours, read-out: Cytotoxicity activity IC50 (50% inhibition of cell proliferation)
Description: as §1

MCF7 (breast) = assay: MTT in vitro cytotoxic activity assay, MCF7; format: cell-based; conditions: Homo sapiens, cells exposed for 96 hours, read-out: Cytotoxicity activity IC50 (50% inhibition of cell proliferation)
Description: as §1

MDA-MB-231 (breast) = assay: MTT in vitro cytotoxic activity assay, MDA-MB-231; format: cell-based; conditions: Homo sapiens, cells exposed for 96 hours, read-out: Cytotoxicity activity IC50 (50% inhibition of cell proliferation)
Description: as §1

[1] = target: T1, recombinant human CK2 (RRββ-holoenzyme) (Homo sapiens, UniProt P68400); assay: CK2 Kinase Assay (33P-ATP, filter plate); format: biochemical; conditions: final ATP concentration 15 μM, 10 minutes at 30° C.; read-out: protein kinase CK2 IC50
T1 construct: purchased Millipore
T1 sequence (P68400 whole entry): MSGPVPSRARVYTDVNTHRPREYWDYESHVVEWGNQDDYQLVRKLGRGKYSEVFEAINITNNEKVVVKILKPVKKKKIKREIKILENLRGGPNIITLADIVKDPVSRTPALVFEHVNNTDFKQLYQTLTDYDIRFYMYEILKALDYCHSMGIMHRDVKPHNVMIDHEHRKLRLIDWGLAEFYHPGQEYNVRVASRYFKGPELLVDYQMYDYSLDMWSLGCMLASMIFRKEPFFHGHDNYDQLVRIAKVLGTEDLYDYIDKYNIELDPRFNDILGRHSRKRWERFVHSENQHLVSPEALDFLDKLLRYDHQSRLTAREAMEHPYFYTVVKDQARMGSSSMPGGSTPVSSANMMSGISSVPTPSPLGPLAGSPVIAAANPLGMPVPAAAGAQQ
T1 sequence (P67870 whole entry partner): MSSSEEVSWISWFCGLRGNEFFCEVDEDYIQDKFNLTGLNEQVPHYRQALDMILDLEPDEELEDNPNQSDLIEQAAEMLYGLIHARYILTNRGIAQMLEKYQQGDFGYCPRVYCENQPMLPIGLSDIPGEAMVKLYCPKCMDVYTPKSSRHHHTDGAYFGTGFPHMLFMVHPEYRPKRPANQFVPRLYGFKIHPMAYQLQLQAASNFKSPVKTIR
Description: CK2 Kinase Assay was conducted using the protocol as described in Pierre F. et al; J. Med. Chem. 2011, 54, 635-654. The tested compounds in aqueous solution were added at a volume of 10 μL to a reaction mixture comprising 10 μL of assay dilution buffer (ADB; 20 mM MOPS, pH 7.2, 25 mM β-glycerol phosphate, 5 mM EGTA, 1 mM sodium orthovanadate, and 1 mM dithiothreitol), 10 μL of substrate peptide (RRRDDDSDDD, dissolved in ADB at a concentration of 1 mM), 10 μL of recombinant human CK2 (RRββ-holoenzyme, 25 ng dissolved in ADB; Millipore). Reactions were initiated by the addition of 10 μL of ATP solution (90% 75 mMMgCl2, 75 μM ATP (final ATP concentration: 15 μM) dissolved in ADB; 10% [γ-33P] ATP (stock 1 mCi/100 μL; 3000 Ci/mmol (Perkin-Elmer) and maintained for 10 minutes at 30° C. The reactions were quenched with 100 μL of 0.75% phosphoric acid and then transferred to and filtered through a phosphor cellulose filter plate (Millipore). After washing each well five times with 0.75% phosphoric acid, the plate was dried under vacuum for 5 min and, following the addition of 15 μL of scintillation fluid to each well, the residual radioactivity was measured using a Wallac […]. The IC50 values were derived from eight concentrations of test inhibitors.

Clc1cccc(Nc2nc3c(nn4ccncc34)c3cnccc23)c1 [Compound (1), N-(3-chlorophenyl)pyrazino[1′,2′:1,5]pyrazolo[4,3-c][2,6]naphthyridin-5-amine]
IC50 (PC3 (prostate)): 1100 nM
IC50 (HCT116 (colon)): 1500 nM
IC50 (A375 (melanoma)): 3200 nM
IC50 (H1299 (lung)): 1900 nM
IC50 (MIAPaCa-2 (pancreas)): 1000 nM
IC50 (HL60 (leukemia)): 3700 nM
IC50 (MCF7 (breast)): 4900 nM
IC50 (MDA-MB-231 (breast)): 4100 nM
IC50 [1]: 22 nM
